Test results: US9216991B2 (Ares Trading S.A., priority 2012, dated 2015)

Columns and labels:
IRAK4 = target: T1, IRAK4 (Homo sapiens, UniProt Q9NWZ3); assay: IRAK4 Enzymatic Assay; type: biochemical; details: His-TEV-IRAK4 20 ng/well, ATP 2 μM, STK1-biotin peptide 300 nM, 3 hours at 30° C., FlashPlate radioactivity
T1 construct: His (N); TEV cleavage site (N)
T1 sequence (Q9NWZ3 1-460): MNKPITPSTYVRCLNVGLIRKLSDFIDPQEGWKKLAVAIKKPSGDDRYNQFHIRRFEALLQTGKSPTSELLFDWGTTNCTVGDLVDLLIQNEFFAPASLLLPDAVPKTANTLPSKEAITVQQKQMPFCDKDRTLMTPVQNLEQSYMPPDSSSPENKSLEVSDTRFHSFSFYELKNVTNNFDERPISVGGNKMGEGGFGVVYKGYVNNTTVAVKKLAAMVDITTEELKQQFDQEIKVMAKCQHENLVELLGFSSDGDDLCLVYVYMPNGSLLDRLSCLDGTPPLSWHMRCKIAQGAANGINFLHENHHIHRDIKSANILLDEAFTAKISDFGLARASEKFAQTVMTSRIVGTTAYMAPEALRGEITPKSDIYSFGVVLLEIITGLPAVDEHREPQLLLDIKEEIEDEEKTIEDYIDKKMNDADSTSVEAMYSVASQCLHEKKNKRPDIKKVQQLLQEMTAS
Method in brief: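 Recombinant His-TEV-tagged IRAK4 (20 ng/well) phosphorylates biotinylated STK1 peptide (300 nM) with 2 μM ATP plus [^33P]ATP, 3 h at 30 °C in pH 7.0 HEPES buffer with MgCl2 and MnCl2; compounds tested 20 μM to 1 nM. Reaction stopped with EDTA; incorporated radioactivity counted on streptavidin FlashPlates.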

SMILES	melting point [°C]	IC50 (IRAK4) [nM]
Cn1cc(-c2cccc(-c3ncc(-c4cnn([C@H]5CC[C@]6(CO)COC[C@]6(O)C5)c4)cn3)c2)cn1 (single isomer, unassigned) [Example 280]	190.1 to 201.7	< 100
Cn1cc(-c2cccc(-c3ncc(-c4cnn([C@@H]5CC[C@@]6(CO)COC[C@@]6(O)C5)c4)cn3)c2)cn1 (single isomer, unassigned) [Example 281]	191.4 to 199.7	100 to 1000
Cn1cc(-c2cccc(-c3ncc(-c4cnn(CCO)c4)cn3)c2)cn1 [Example 23, 2-(4-{2-[3-(1-Methyl-1H-pyrazol-4-yl)-phenyl]-pyrimidin-5-yl}-pyrazol-1-yl)-ethanol]	234 to 236	100 to 1000
Cn1cc(-c2cnc(-c3cccc(-c4cnn(C)c4)c3)nc2)cn1 [Example 32, 5-(1-Methyl-1H-pyrazol-4-yl)-2-[3-(1-methyl-1H-pyrazol-4-yl)-phenyl]-pyrimidine]	199 to 200	100 to 1000
Cn1cc(-c2cccc(-c3ncc(-c4cnn(CC(=O)N5CCCC(O)C5)c4)cn3)c2)cn1 (centres unmarked) [Example 52, 1-(3-Hydroxy-piperidin-1-I)-2-(4-{2-[3-(1-methyl-1H-pyrazol-4-yl)-phenyl]-pyrimidin-5-yl}-pyrazol-1-yl)-ethanone]	198 to 200	100 to 1000
Cn1cc(-c2cccc(-c3ncc(-c4cnn(CC(=O)N5CC(O)C5)c4)cn3)c2)cn1 [Example 73, 1-(3-Hydroxy-azetidin-1-yl)-2-(4-{2-[3-(1-methyl-1H-pyrazol-4-yl)-phenyl]-pyrimidin-5-yl}-pyrazol-1-yl)-ethanone]	177 to 181	100 to 1000
Cn1cc(-c2cccc(-c3ncc(-c4cnn(CC(=O)N5CCC(O)C5)c4)cn3)c2)cn1 (centres unmarked) [Example 74, 1-(3-Hydroxy-pyrrolidin-1-yl)-2-(4-{2-[3-(1-methyl-1H-pyrazol-4-yl)-phenyl]-pyrimidin-5-yl}-pyrazol-1-yl)-ethanone]	237 to 238	100 to 1000
Cn1cc(-c2cccc(-c3ncc(-c4cnn(C5CCS(=O)(=O)C5)c4)cn3)c2)cn1 (centres unmarked) [Example 219, 5-[1-(1,1-Dioxo-tetrahydro-1lambda6-thiophen-3-yl)-1H-pyrazol-4-yl]-2-[3-(1-methyl-1H-pyrazol-4-yl)-phenyl]-pyrimidine]	247 to 250	100 to 1000
Cn1cc(-c2cccc(-c3ncc(-c4cnn([C@H]5CC[C@H](OCCO)CC5)c4)cn3)c2)cn1 [Example 277, Trans-2-[4-(-4-{2-[3-(1-Methyl-1H-pyrazol-4-yl)-phenyl]-pyrimidin-5-yl}-pyrazol-1-yl)-cyclohexyloxy]-ethanol]	218.7 to 223.3	< 100
Cn1cc(-c2cccc(-c3ncc(-c4cnn([C@H]5CCCNC5)c4)cn3)c2)cn1 [Example 283, 2-[3-(1-Methyl-1H-pyrazol-4-yl)-phenyl]-5-((S)-1-piperidin-3-yl-1H-pyrazol-4-yl)-pyrimidine]	175.8 to 180.6	< 100
Cn1cc(-c2cccc(-c3ncc(-c4cnn([C@H]5CC[C@@]6(CC5)CNC(=O)C6)c4)cn3)c2)cn1 [Example 286, trans-8-(4-{2-[3-(1-Methyl-1H-pyrazol-4-yl)-phenyl]-pyrimidin-5-yl}-pyrazol-1-yl)-2-aza-spiro[4.5]decan-3-one]	255 to 258.7	< 100
Cn1cc(-c2cccc(-c3ncc(-c4cnn([C@H]5CC[C@]6(CC5)CNC(=O)C6)c4)cn3)c2)cn1 [Example 287, cis-8-(4-(2-(3-(1-methyl-1H-pyrazol-4-yl)phenyl)pyrimidin-5-yl)-1H-pyrazol-1-yl)-2-azaspiro[4.5]decan-3-one]	262 to 265.8	< 100
Cn1cc(-c2cccc(-c3ncc(-c4cnn(C5CCCC(S(C)(=N)=O)C5)c4)cn3)c2)cn1 (centres unmarked) [Example 288, imino(methyl)(3-(4-(2-(3-(1-methyl-1H-pyrazol-4-yl)phenyl)pyrimidin-5-yl)-1H-pyrazol-1-yl)cyclohexyl)-λ6-sulfanone]	172 to 179.2	< 100
